# Key:
# [1] = tested on: EKVX; assay: NCI-60 antiproliferative screen (SRB); format: cell-based, human; details: Homo sapiens; 10 µM single dose, 48 h; EKVX (NSCLC); read-out: Growth inhibition (%)
# [2] = tested on: SNB-75; assay: NCI-60 antiproliferative screen (SRB); details: Homo sapiens, SNB-75, 48 h, read-out: Growth inhibition (%)
# [3] = tested on: MDA-MB-435; assay: NCI-60 antiproliferative screen (SRB); format: cell-based, human; details: Homo sapiens; 10 µM single dose, 48 h; MDA-MB-435 (Melanoma); read-out: Growth inhibition (%)
# [4] = tested on: KM12; assay: NCI-60 antiproliferative screen (SRB); format: cell-based, human; details: Homo sapiens; 10 µM single dose, 48 h; KM12 (Colon); read-out: Growth inhibition (%)
# [5] = tested on: HT29; assay: NCI-60 antiproliferative screen (SRB); format: cell-based, human; details: Homo sapiens, HT-29; 10 µM single dose, 48 h; HT29 (Colon); read-out: Growth inhibition (%)
# [6] = tested on: SN12C; assay: NCI-60 antiproliferative screen (SRB); format: cell-based, human; details: Homo sapiens; 10 µM single dose, 48 h; SN12C (Renal); read-out: Growth inhibition (%)
# [7] = tested on: M14; assay: NCI-60 antiproliferative screen (SRB); format: cell-based, human; details: Homo sapiens; 10 µM single dose, 48 h; M14 (Melanoma); read-out: Growth inhibition (%)
# [8] = tested on: NCI-60 human cancer cell lines; assay: NCI-60 screen, full panel summary; format: cell-based; details: 10 µM single dose; for Mean Growth Percent: all NCI-60 cell lines
# Method: In a comprehensive test, compounds were assayed at a single dose concentration (10^−5 M) in the full panel of NCI-60 cancer cell lines.
# [9] = tested on: MOLT-4; assay: NCI-60 antiproliferative screen (SRB); format: cell-based; details: Homo sapiens; 10 µM single dose, 48 h; MOLT-4 (Leukemia); read-out: Growth inhibition (%)
# [10] = tested on: HOP-62; assay: NCI-60 antiproliferative screen (SRB); format: cell-based, human; details: Homo sapiens; 10 µM single dose, 48 h; HOP-62 (NSCLC); read-out: Growth inhibition (%)
# [11] = tested on: HL-60(TB); assay: NCI-60 antiproliferative screen (SRB); format: cell-based, human; details: Homo sapiens; 10 µM single dose, 48 h; HL-60(TB) (Leukemia); read-out: Growth inhibition (%)
# [12] = tested on: MALME-3M; assay: NCI-60 antiproliferative screen (SRB); format: cell-based, human; details: Homo sapiens; 10 µM single dose, 48 h; MALME-3M (Melanoma); read-out: Growth inhibition (%)
# [13] = tested on: IGROV1; assay: NCI-60 antiproliferative screen (SRB); format: cell-based, human; details: Homo sapiens, IGROV-1; 10 µM single dose, 48 h; IGROV1 (Ovarian); read-out: Growth inhibition (%)
# [14] = tested on: LOX IMVI; assay: NCI-60 antiproliferative screen (SRB); format: cell-based, human; details: Homo sapiens; 10 µM single dose, 48 h; LOX IMVI (Melanoma); read-out: Growth inhibition (%)
# [15] = tested on: HCT-15; assay: NCI-60 antiproliferative screen (SRB); format: cell-based, human; details: Homo sapiens; 10 µM single dose, 48 h; HCT-15 (Colon); read-out: Growth inhibition (%)
# [16] = tested on: NCI-H226; assay: NCI-60 antiproliferative screen (SRB); format: cell-based, human; details: Homo sapiens; 10 µM single dose, 48 h; NCI-H226 (NSCLC); read-out: Growth inhibition (%)
# [17] = tested on: T-47D; assay: NCI-60 antiproliferative screen (SRB); format: cell-based, human; details: Homo sapiens, T47D; 10 µM single dose, 48 h; T-47D (Breast); read-out: Growth inhibition (%)
# [18] = tested on: CAKI-1; assay: NCI-60 antiproliferative screen (SRB); format: cell-based, human; details: Homo sapiens; 10 µM single dose, 48 h; CAKI-1 (Renal); read-out: Growth inhibition (%)
# [19] = tested on: NCI-H322M; assay: NCI-60 antiproliferative screen (SRB); format: cell-based, human; details: Homo sapiens; 10 µM single dose, 48 h; NCI-H322M (NSCLC); read-out: Growth inhibition (%)
# [20] = tested on: NCI-H522; assay: NCI-60 antiproliferative screen (SRB); format: cell-based, human; details: Homo sapiens; 10 µM single dose, 48 h; NCI-H522 (NSCLC); read-out: Growth inhibition (%)
# [21] = tested on: UO-31; assay: NCI-60 antiproliferative screen (SRB); format: cell-based, human; details: Homo sapiens; 10 µM single dose, 48 h; UO-31 (Renal); read-out: Growth inhibition (%)
# [22] = tested on: HCC-2998; assay: NCI-60 antiproliferative screen (SRB); format: cell-based, human; details: Homo sapiens; 10 µM single dose, 48 h; HCC-2998 (Colon); read-out: Growth inhibition (%)
# [23] = tested on: SK-OV-3; assay: NCI-60 antiproliferative screen (SRB); format: cell-based, human; details: Homo sapiens; 10 µM single dose, 48 h; SK-OV-3 (Ovarian); read-out: Growth inhibition (%)
# [24] = tested on: SF-539; assay: NCI-60 antiproliferative screen (SRB); format: cell-based, human; details: Homo sapiens; 10 µM single dose, 48 h; SF-539 (CNS); read-out: Growth inhibition (%)
# [25] = tested on: SNB-19; assay: NCI-60 antiproliferative screen (SRB); format: cell-based, human; details: Homo sapiens; 10 µM single dose, 48 h; SNB-19 (CNS); read-out: Growth inhibition (%)
# [26] = tested on: SW-620; assay: NCI-60 antiproliferative screen (SRB); format: cell-based, human; details: Homo sapiens; 10 µM single dose, 48 h; SW-620 (Colon); read-out: Growth inhibition (%)
# [27] = tested on: COLO 205; assay: NCI-60 antiproliferative screen (SRB); format: cell-based, human; details: Homo sapiens; 10 µM single dose, 48 h; COLO 205 (Colon); read-out: Growth inhibition (%)
# [28] = tested on: UACC-62; assay: NCI-60 antiproliferative screen (SRB); format: cell-based, human; details: Homo sapiens; 10 µM single dose, 48 h; UACC-62 (Melanoma); read-out: Growth inhibition (%)
# [29] = tested on: SK-MEL-5; assay: NCI-60 antiproliferative screen (SRB); format: cell-based, human; details: Homo sapiens; 10 µM single dose, 48 h; SK-MEL-5 (Melanoma); read-out: Growth inhibition (%)
# [30] = tested on: SR; assay: NCI-60 antiproliferative screen (SRB); details: Homo sapiens, 48 h, read-out: Growth inhibition (%)
# Method: Anticancer activity was tested against 60 cancer cell lines (NCI-60) after 48h treatments with a single dosage of 10 μM of compounds by using sulforhodamine B assay [39] on the traditional 96-well platform. […] The human cancer cell lines of the NCI-60 panel are grown in RPMI 1640 medium supplemented with 5% FBS (fetal bovine serum) and 2 mM L-glutamine. […] For further analysis of promising compounds, five dose screens were performed against the NCI-60 panel. Drug treatments are performed in 5 doses using 10-fold or ½ log dose dilutions.
SMILES,inhibition at 10 µM [1],inhibition at 10 µM [2],inhibition at 10 µM [3],inhibition at 10 µM [4],inhibition at 10 µM [5],inhibition at 10 µM [6],inhibition at 10 µM [7],Positive Cytostatic Effect (cell lines with percent growth from 0 to 50 / total number of cell lines) [8],Positive Cytotoxic Effect (cell lines with percent growth of <0 / total number of cell lines) [8],Sensitive/Total Cell Lines [8],Mean Growth Percent [8],inhibition at 10 µM [9],inhibition at 10 µM [10],inhibition at 10 µM [11],inhibition at 10 µM [14],inhibition at 10 µM [15],inhibition at 10 µM [16],inhibition at 10 µM [17],inhibition at 10 µM [18],inhibition at 10 µM [20],further results
"O=C1Nc2ccc(F)cc2C1=Cc1ccc(OCc2ccccn2)cc1 (mixture of isomers) [Compound 5f, (E/Z)-5-fluoro-3-[4-(pyridin-2-ylmethoxy)benzylidene]indolin-2-one]",15.8%,10.2%,-2.77%,18.8%,-0.51%,4.04%,-5.09%,3/59,0/59,3/59,13.74,3.55%,-7.71%,13.9%,12.6%,10.7%,6.67%,60.7%,33.5%,68.1%,The Most Sensitive Cell Line [8]: NCI-H522; inhibition at 10 µM [12]: 7.24%; inhibition at 10 µM [13]: 6.35%; inhibition at 10 µM [19]: 3.29%; inhibition at 10 µM [21]: 26.5%; inhibition at 10 µM [22]: -20.2%; inhibition at 10 µM [23]: 3.75%; inhibition at 10 µM [24]: 47.7%; inhibition at 10 µM [25]: 12.9%; inhibition at 10 µM [26]: -2.79%; inhibition at 10 µM [27]: -10.8%; inhibition at 10 µM [28]: 9.94%; inhibition at 10 µM [29]: -5.85%
"O=C1Nc2ccccc2C1=Cc1ccc(OCc2cccnc2)cc1 (mixture of isomers) [Compound 5i, (E/Z)-3-[4-(Pyridin-3-ylmethoxy)benzylidene]indolin-2-one]",31.7%,-1.11%,60.9%,87.4%,32.7%,27.1%,37.6%,17/56,0/56,17/56,34.95,70%,37.2%,49.9%,55%,60.5%,38.2%,51%,56.7%,49.9%,inhibition at 10 µM [30]: 72%; The Most Sensitive Cell Line [8]: KM12; inhibition at 10 µM [22]: -2.08%; inhibition at 10 µM [23]: 13.2%; inhibition at 10 µM [24]: 36.2%; inhibition at 10 µM [25]: 37.1%; inhibition at 10 µM [26]: 19.9%; inhibition at 10 µM [27]: 26.1%; inhibition at 10 µM [28]: 43.5%; inhibition at 10 µM [29]: 59.4%
"O=C1Nc2ccc(F)cc2C1=Cc1ccc(OCc2cccnc2)cc1 (mixture of isomers) [Compound 5j, (E/Z)-5-Fluoro-3-[4-(pyridin-3-ylmethoxy)benzylidene]indolin-2-one]",41%,-5.67%,98.3%,97.3%,84.1%,46.1%,67.1%,32/56,1/56,33/56,53.95,88.5%,45.4%,81.7%,76.9%,84.8%,55.6%,66.7%,67.6%,89.5%,inhibition at 10 µM [30]: 73%; The Most Sensitive Cell Line [8]: SK-MEL-5; number of cell lines with cytostatic effects [8]: 32; number of cell lines with cytotoxic effects [8]: 1; inhibition at 10 µM [22]: 23.4%; inhibition at 10 µM [23]: 13.2%; inhibition at 10 µM [24]: 63.3%; inhibition at 10 µM [25]: 62.1%; inhibition at 10 µM [26]: 70.1%; inhibition at 10 µM [27]: 46.1%; inhibition at 10 µM [28]: 57.8%; inhibition at 10 µM [29]: 113%
"O=C1Nc2ccc(Cl)cc2C1=Cc1ccc(OCc2cccnc2)cc1 (mixture of isomers) [Compound 5k, (E/Z)-5-Chloro-3-[4-(pyridin-3-ylmethoxy)benzylidene] indolin-2-one]",16.1%,-10.2%,29.3%,52.8%,18.1%,9.17%,12.2%,5/56,0/56,5/56,14.49,52.6%,0.56%,14.8%,10.1%,46.5%,11.8%,23.2%,51%,19.8%,inhibition at 10 µM [30]: 66.1%; inhibition at 10 µM [22]: -9.21%; inhibition at 10 µM [23]: 5.36%; inhibition at 10 µM [24]: 20.2%; inhibition at 10 µM [25]: 22.9%; inhibition at 10 µM [26]: 2.62%; inhibition at 10 µM [27]: 5.66%; inhibition at 10 µM [28]: 23.3%; inhibition at 10 µM [29]: 11.4%

# — PMC11124822, “Discovery and Anticancer Screening of Novel Oxindole-Based Derivative Bearing Pyridyl Group as Potent and Selective Dual FLT3/CDK2 Kinase Inhibitor” (Pharmaceuticals, 2024)
